Data from US8518952B2, “6 substituted 2-heterocyclylamino pyrazine compounds as CHK-1 inhibitors” (Pfizer Inc., priority 2008, dated 2013).
Structures can show the parent of a compound that is named as a salt.

Experiments:
CHK1 (kinase domain) = target: T1, CHK1 (kinase domain) (Homo sapiens, UniProt O14757); assay: CHK1 Ki determination, spectrophotometric coupled (pyruvate kinase/lactate dehydrogenase) assay; format: biochemical; settings: CHK-1 kinase domain; 150 uM ATP, 125 uM Syntide 2
T1 construct: a solution containing 1 nM of CHK1 (kinase domain)
T1 sequence (O14757 9-265 limits assumed): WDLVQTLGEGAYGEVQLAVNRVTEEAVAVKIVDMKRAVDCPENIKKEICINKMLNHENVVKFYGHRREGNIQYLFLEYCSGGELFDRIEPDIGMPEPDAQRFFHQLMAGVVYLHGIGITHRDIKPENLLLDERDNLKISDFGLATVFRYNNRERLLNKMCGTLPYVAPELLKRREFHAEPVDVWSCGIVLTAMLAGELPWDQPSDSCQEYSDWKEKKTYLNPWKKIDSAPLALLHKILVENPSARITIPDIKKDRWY
Method in brief: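 Ki values, or % inhibition where no Ki was obtained, come from a tight-binding fit that uses active enzyme concentration and the ATP Km. Rates were followed as NADH loss at 340 nm, with ADP production coupled via pyruvate kinase and lactate dehydrogenase. Reactions with ATP (150 uM) and Syntide 2 (125 uM) were started after the CHK1 kinase domain had stood with inhibitor for 15 min.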

Mia Paca-2 cells = assay: Histone H3 (Ser10) phosphorylation ELISA, abrogation of camptothecin-induced G2 arrest (CHK-1 cellular assay); format: cell-based; settings: camptothecin 8 hrs, then compound with nocodozole 16 hours
Method in brief: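 HeLa cells, or Mia Paca-2 where marked, were damaged with camptothecin for 8 h, then exposed to compound with nocodazole for 16 h. Mitotic entry was read as phospho-histone H3 (Ser10) by sandwich ELISA, with absorbance at 450 nm. EC50 came from four-parameter sigmoid fitting.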

[1] = Homo sapiens, Mia Paca-2 cells (entries marked *)
[2] = Homo sapiens, MIA PaCa-2, Mia Paca-2 cells (entries marked *)

Compound COc1ccn2c(-c3cncc(N[C@H]4CN[C@H](COC(C)C)C4)n3)cnc2c1 [Example 242, 6-(7-methoxyimidazo[1,2-a]pyridin-3-yl)-N-{(3R,5S)-5-[(propan-2-yloxy)methyl]pyrrolidin-3-yl}pyrazin-2-amine] has a Ki (CHK1 (kinase domain)) of 28 nM and an EC50 (Mia Paca-2 cells; [1]) of 129 nM.
With CCOC[C@@H]1C[C@@H](Nc2cncc(-c3cnc4cc(OC)ccn34)n2)CN1 [Example 243, N-[(3R,5S)-5-(ethoxymethyl)pyrrolidin-3-yl]-6-(7-methoxyimidazo[1,2-a]pyridin-3-yl)pyrazin-2-amine] the Ki (CHK1 (kinase domain)) was 24.8 nM and the EC50 (Mia Paca-2 cells; [1]) was 172 nM.
For COC[C@@H]1C[C@@H](Nc2cncc(-c3cnc4cc(Cl)ccn34)n2)CN1 [Example 244, 6-(7-chloroimidazo[1,2-a]pyridin-3-yl)-N-[(3R,5S)-5-(methoxymethyl)pyrrolidin-3-yl]pyrazin-2-amine], the Ki (CHK1 (kinase domain)) was 15.9 nM and the EC50 (Mia Paca-2 cells; [1]) was 60.3 nM.
OC[C@@H]1C[C@@H](Nc2cncc(-c3cnc4cc(Cl)ccn34)n2)CN1 [Example 245, [(2S,4R)-4-{[6-(7-chloroimidazo[1,2-a]pyridin-3-yl)pyrazin-2-yl]amino}pyrrolidin-2-yl]methanol] showed a Ki (CHK1 (kinase domain)) of 4.72 nM and an EC50 (Mia Paca-2 cells; [1]) of 85.9 nM.
Cc1ncc(N[C@@H]2CCCNC2)nc1-c1cnc2ccccn12 [Example 247, 6-(imidazo[1,2-a]pyridin-3-yl)-5-methyl-N-[(3R)-piperidin-3-yl]pyrazin-2-amine] was tested, and the Ki (CHK1 (kinase domain)) was 192 nM and the EC50 (Mia Paca-2 cells; [2]) was 1110 nM.
Work on CO[C@@H]1CNC[C@@H](Nc2cncc(-c3cnc4ccccn34)n2)C1 [Example 250, 6-(imidazo[1,2-a]pyridin-3-yl)-N-[(3S,5S)-5-methoxypiperidin-3-yl]pyrazin-2-amine] yielded a Ki (CHK1 (kinase domain)) of 48.8 nM and an EC50 (Mia Paca-2 cells; [2]) of 1620 nM.
For c1cn2ncc(-c3cncc(N[C@@H]4CCCNC4)n3)c2cn1 [Example 251, N-[(3R)-piperidin-3-yl]-6-(pyrazolo[1,5-a]pyrazin-3-yl)pyrazin-2-amine, acetate salt], the Ki (CHK1 (kinase domain)) was 10 nM and the EC50 (Mia Paca-2 cells; [1]) was 255 nM.
In the case of C[C@H]1NCCC[C@H]1Nc1cncc(-c2cnn3ccncc23)n1 [Example 252, N-[(2R,3R)-2-methylpiperidin-3-yl]-6-(pyrazolo[1,5-a]pyrazin-3-yl)pyrazin-2-amine, acetate salt], the Ki (CHK1 (kinase domain)) is reported as 69.3 nM and the EC50 (Mia Paca-2 cells; [1]) is reported as 1110 nM.
Compound C[C@@H]1CNC[C@@H]1Nc1cncc(-c2cnn3ccncc23)n1 [Example 253, N-[(3R,4R)-4-methylpyrrolidin-3-yl]-6-(pyrazolo[1,5-a]pyrazin-3-yl)pyrazin-2-amine, acetate salt] has a Ki (CHK1 (kinase domain)) of 85.6 nM and an EC50 (Mia Paca-2 cells; [1]) of 1030 nM.
Compound Clc1cc2ncn(-c3cncc(N[C@@H]4CCCNC4)n3)c2cn1 [Example 254, 6-(6-chloro-3H-imidazo[4,5-c]pyridin-3-yl)-N-[(3R)-piperidin-3-yl]pyrazin-2-amine] has a Ki (CHK1 (kinase domain)) of 28.3 nM and an EC50 (Mia Paca-2 cells; [1]) of 542 nM.
Clc1cc2c(cn1)ncn2-c1cncc(N[C@@H]2CCCNC2)n1 [Example 255, 6-(6-chloro-1H-imidazo[4,5-c]pyridin-1-yl)-N-[(3R)-piperidin-3-yl]pyrazin-2-amine] showed a Ki (CHK1 (kinase domain)) of 34.5 nM and an EC50 (Mia Paca-2 cells; [1]) of 597 nM.
CC(CO)(CO)COc1ccc2c(c1)ncn2-c1cncc(N[C@@H]2CCCNC2)n1 [Example 256, 2-methyl-2-{[(1-{6-[(3R)-piperidin-3-ylamino]pyrazin-2-yl}-1H-benzimidazol-5-yl)oxy]methyl}propane-1,3-diol] showed a Ki (CHK1 (kinase domain)) of 1.26 nM and an EC50 (Mia Paca-2 cells; [1]) of 53.7 nM.
CCOc1cc2c(cn1)ncn2-c1cncc(N[C@@H]2CCCNC2)n1 [Example 257, 6-(6-ethoxy-1H-imidazo[4,5-c]pyridin-1-yl)-N-[(3R)-piperidin-3-yl]pyrazin-2-amine] gave a Ki (CHK1 (kinase domain)) of 12.6 nM and an EC50 (Mia Paca-2 cells; [1]) of 166 nM.
With CCOc1cc2ncn(-c3cncc(N[C@@H]4CCCNC4)n3)c2cn1 [Example 258, 6-(6-ethoxy-3H-imidazo[4,5-c]pyridin-3-yl)-N-[(3R)-piperidin-3-yl]pyrazin-2-amine] the Ki (CHK1 (kinase domain)) was 4.38 nM and the EC50 (Mia Paca-2 cells; [1]) was 98.4 nM.
For CO[C@H]1CCNC[C@@H]1Nc1cncc(-c2cnc3ccccn23)n1 [Example 259, 6-(imidazo[1,2-a]pyridin-3-yl)-N-[(3S,4S)-4-methoxypiperidin-3-yl]pyrazin-2-amine], the Ki (CHK1 (kinase domain)) was 3.82 nM and the EC50 (Mia Paca-2 cells; Mia Paca-2 cells (entries marked *)) was 38.8 nM.
Work on CO[C@@H]1CCNC[C@H]1Nc1cncc(-c2cnc3ccccn23)n1 [Example 260, 6-(imidazo[1,2-a]pyridin-3-yl)-N-[(3R,4R)-4-methoxypiperidin-3-yl]pyrazin-2-amine (HCl salt)] yielded a Ki (CHK1 (kinase domain)) of 233 nM and an EC50 (Mia Paca-2 cells; [2]) of 549 nM.
COC[C@@H]1C[C@@H](Nc2cncc(-c3cnn4ccccc34)n2)CN1 [Example 261, N-[(3R,5S)-5-(methoxymethyl)pyrrolidin-3-yl]-6-(pyrazolo[1,5-a]pyridin-3-yl)pyrazin-2-amine] gave a Ki (CHK1 (kinase domain)) of 14.9 nM and an EC50 (Mia Paca-2 cells; [1]) of 37 nM.
Work on COc1ccn2c(-c3cncc(N[C@H]4C5CCN(CC5)[C@H]4C)n3)cnc2c1 [Example 265, (2S,3S)-N-[6-(7-methoxyimidazo[1,2-a]pyridin-3-yl)pyrazin-2-yl]-2-methyl-1-azabicyclo[2.2.2]octan-3-amine] yielded a Ki (CHK1 (kinase domain)) of 5.37 nM and an EC50 (Mia Paca-2 cells; [1]) of 244 nM.
With COC[C@@H]1C[C@@H](Nc2cncc(-c3cnc4ccc(F)cn34)n2)CN1 [Example 266, 6-(6-fluoroimidazo[1,2-a]pyridin-3-yl)-N-[(3R,5S)-5-(methoxymethyl)pyrrolidin-3-yl]pyrazin-2-amine] the Ki (CHK1 (kinase domain)) was 78.7 nM and the EC50 (Mia Paca-2 cells; [1]) was 548 nM.
CCOc1ccc2ncn(-c3cncc(N[C@H]4CN[C@H](COC)C4)n3)c2c1 [Example 268, 6-(6-ethoxy-1H-benzimidazol-1-yl)-N-[(3R,5S)-5-(methoxymethyl)pyrrolidin-3-yl]pyrazin-2-amine] gave a Ki (CHK1 (kinase domain)) of 65.8 nM and an EC50 (Mia Paca-2 cells; [1]) of 1480 nM.
CCOc1ccc2c(c1)ncn2-c1cncc(N[C@H]2CN[C@H](COC)C2)n1 [Example 269, 6-(5-ethoxy-1H-benzimidazol-1-yl)-N-[(3R,5S)-5-(methoxymethyl)pyrrolidin-3-yl]pyrazin-2-amine] showed a Ki (CHK1 (kinase domain)) of 9.76 nM and an EC50 (Mia Paca-2 cells; [1]) of 73 nM.
Clc1cc2c(cn1)ncn2-c1cncc(N[C@@H]2CCNC2)n1 [Example 271, 6-(6-chloro-1H-imidazo[4,5-c]pyridin-1-yl)-N-[(3R)-pyrrolidin-3-yl]pyrazin-2-amine] was tested, and the Ki (CHK1 (kinase domain)) was 118 nM and the EC50 (Mia Paca-2 cells; [1]) was 4770 nM.
c1ncc(-n2cnc3cnc(N4CCOCC4)cc32)nc1N[C@@H]1CCCNC1 [Example 272, 6-[6-(morpholin-4-yl)-1H-imidazo[4,5-c]pyridin-1-yl]-N-[(3R)-piperidin-3-yl]pyrazin-2-amine] was tested, and the Ki (CHK1 (kinase domain)) was 40.8 nM and the EC50 (Mia Paca-2 cells; [1]) was 2010 nM.
For Cc1cn2c(-c3cncc(N[C@@H]4CCCN[C@@H]4C)n3)cnc2cn1 [Example 285, 6-(6-methylimidazo[1,2-a]pyrazin-3-yl)-N-[(2R,3R)-2-methylpiperidin-3-yl]pyrazin-2-amine], the Ki (CHK1 (kinase domain)) was 21.3 nM and the EC50 (Mia Paca-2 cells; [1]) was 91 nM.
